Results from patent publication US9101630B2, “Use of PDGF-R inhibitors for the treatment of lymph node metastasis of gastric cancer” (priority 2010, dated 2015).
Counter-ions that a name gives are not always drawn.

Tested on: TMK-1 human gastric carcinoma cells implanted into the stomachs of nude mice
Experiment: Treatment of established human gastric cancer tumors growing in murine gastric walls; Lyve-1 immunohistochemical determination of the area of lymphatic vessels
Type: in vivo, athymic BALB/c nude mice
Settings: TMK-1 orthotopic gastric tumors in nude mice, imatinib mesylate 50 mg/kg daily oral gavage for 28 days, started 14 days after implantation, versus control (water), P<0.05
Source text: Animals and orthotopic implantation of tumor cells. Male athymic BALB/c nude mice (Charles River Japan, Tokyo) were maintained under specific pathogen-free conditions and used at 5 weeks of age. Subconfluent gastric cancer cells (TMK-1 or KKLS cells) to be used for implantation were harvested by brief treatment with 0.25% trypsin and 0.02% ethylenediamine tetraacetic acid, and then re-suspended to a final concentration of 2.0×10^7 cells/mL Hanks' solution. With the use of a 30-gauge needle attached to a 1-mL syringe, cells (1×10^6 cells in 50 μl) were implanted into the gastric walls in the nude mice under observation with a zoom stereomicroscope. […]
Treatment of established human gastric cancer tumors growing in murine gastric walls. Fourteen days after orthotopic implantation of TMK-1 cells, mice (n=10 each group) were randomly assigned to receive one of the following two treatments daily oral gavage of water (control group) or daily oral gavage of imatinib mesylate (50 mg/kg, optimal biological dose as determined previously (Hwang R F, et al. Clin Cancer Res 2003; 9: 6534-44) The treatments continued for 28 days. All therapy experiments were performed twice. The mice bearing orthotopic tumors were euthanised by methophane on day 29. For immunohistochemistry, the tumor tissues were fixed in formalin and embedded in paraffin. […]

Cc1ccc(NC(=O)c2ccc(CN3CCN(C)CC3)cc2)cc1Nc1nccc(-c2cccnc2)n1 [imatinib mesylate]
area of lymphatic vessels in tumors (Lyve-1 immunohistochemistry): reduced areas of lymphatic vessels
area of lymphatic vessels in tumors (Lyve-1 immunohistochemistry) (listed as imatinib): significantly reduced the area of lymphatic vessels
